Each compound was assayed against T1, Beta-secretase 1 (Homo sapiens, UniProt P56817) (assay: Inhibition of recombinant BACE1 (unknown origin) at 1500 uM using H-Ile-Lys-Thr-Glu-Glu-Ile-Ser-Glu-Val-Asn-Leu-Asp-Ala-Glu-Phe-Arg-His-Asp-Ser-Gly-NH2 peptide as substrate measured after 90 mins by analytical HPLC analysis relative to control).
T1 sequence (P56817 whole entry): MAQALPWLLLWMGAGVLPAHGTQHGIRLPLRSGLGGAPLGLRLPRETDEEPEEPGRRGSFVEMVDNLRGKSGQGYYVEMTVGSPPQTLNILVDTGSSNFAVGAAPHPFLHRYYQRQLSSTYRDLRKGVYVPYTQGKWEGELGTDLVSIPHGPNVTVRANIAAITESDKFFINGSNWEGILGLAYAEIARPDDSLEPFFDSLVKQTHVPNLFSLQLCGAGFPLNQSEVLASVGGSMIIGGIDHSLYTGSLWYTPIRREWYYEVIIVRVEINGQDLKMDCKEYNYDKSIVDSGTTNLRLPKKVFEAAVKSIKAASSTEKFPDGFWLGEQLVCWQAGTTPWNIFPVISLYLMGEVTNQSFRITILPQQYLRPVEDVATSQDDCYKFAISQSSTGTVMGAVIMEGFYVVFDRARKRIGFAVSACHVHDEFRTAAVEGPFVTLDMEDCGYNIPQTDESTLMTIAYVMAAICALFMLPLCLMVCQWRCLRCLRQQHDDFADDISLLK

Point of comparison: `CCC[C@@H]1NC(=O)[C@@H](NC(=O)[C@@H](N)CCC(=O)O)C/C=C/CC[C@@H]([C@H](O)CNc2ccc(C)cc2)NC1=O`, inhibition 20%. Against it:
- CCC[C@@H]1NC(=O)[C@@H](NC(=O)[C@@H](N)CCC(=O)O)COC/C=C\CC[C@@H]([C@H](O)CNc2ccc(C)cc2)NC1=O — the same, 20%
- CCC[C@@H]1NC(=O)[C@@H](NC(=O)[C@@H](N)CCC(=O)O)COCCCCC[C@@H]([C@H](O)CNc2ccc(C)cc2)NC1=O — the same, 20%
- CCC[C@@H]1NC(=O)[C@@H](NC(=O)[C@@H](N)CCC(=O)O)COC/C=C/CC[C@@H]([C@H](O)CNc2ccc(C)cc2)NC1=O — the same, 20%

What follows are compounds tested against T1, Beta-secretase 1 (assay: Inhibition of recombinant BACE1 (unknown origin) using H-Ile-Lys-Thr-Glu-Glu-Ile-Ser-Glu-Val-Asn-Leu-Asp-Ala-Glu-Phe-Arg-His-Asp-Ser-Gly-NH2 peptide as substrate measured after 90 mins by analytical HPLC analysis).

Point of comparison: `CCC[C@@H]1NC(=O)[C@@H](NC(=O)[C@@H](N)CCC(=O)O)C(C)(C)OCCCC[C@@H]([C@H](O)CNc2ccc(CC(=O)O)cc2)NC1=O`, IC50 1.6 µM. Against it:
- CCC[C@@H]1NC(=O)[C@@H](NC(=O)[C@@H](N)CCC(=O)O)[C@@H](C)OC/C=C\C[C@@H]([C@H](O)CNc2ccc(C)cc2)NC1=O — 73-fold higher, 117 µM
- CCC[C@@H]1NC(=O)[C@@H](NC(=O)[C@@H](N)CCC(=O)O)C(C)(C)OC/C=C\C[C@@H]([C@H](O)CNc2ccc(CC(=O)O)cc2)NC1=O — within 1.5-fold, 1.2 µM
- CCC[C@@H]1NC(=O)[C@@H](NC(=O)[C@@H](N)CCC(=O)O)CC/C=C/CC[C@@H]([C@H](O)CNc2ccc(C)cc2)NC1=O — 240-fold higher, 380 µM
- CCC[C@H](NC(=O)[C@@H](NC(=O)[C@@H](N)CCC(=O)O)[C@@H](C)CC)C(=O)N[C@@H](CC(C)C)[C@H](O)CNc1ccc(C)cc1 — 3.8-fold higher, 6.1 µM
- CCC[C@@H]1NC(=O)[C@@H](NC(=O)[C@@H](N)CCC(=O)O)[C@@H](C)OC/C=C/C[C@@H]([C@H](O)CNc2ccc(C)cc2)NC1=O — 890-fold higher, 1420 µM
- CCC[C@@H]1NC(=O)[C@@H](NC(=O)[C@@H](N)CCC(=O)O)COC/C=C\CC[C@@H]([C@H](O)CNc2ccc(C)cc2)NC1=O — higher, > 1500 µM
- CCC[C@@H]1NC(=O)[C@@H](NC(=O)[C@@H](N)CCC(=O)O)C(C)(C)OC/C=C\C[C@@H]([C@H](O)CNc2ccc(C)cc2)NC1=O — 2.4-fold higher, 3.9 µM
- CCC[C@@H]1NC(=O)[C@@H](NC(=O)[C@@H](N)CCC(=O)O)COCCCCC[C@@H]([C@H](O)CNc2ccc(C)cc2)NC1=O — higher, > 1500 µM
- CCC[C@@H]1NC(=O)[C@@H](NC(=O)[C@@H](N)CCC(=O)O)C/C=C\CC[C@@H]([C@H](O)CNc2ccc(C)cc2)NC1=O — 660-fold higher, 1050 µM
- CCC[C@@H]1NC(=O)[C@@H](NC(=O)[C@@H](N)CCC(=O)O)[C@H](C)OCCCC[C@@H]([C@H](O)CNc2ccc(C)cc2)NC1=O — 84-fold higher, 135 µM
- CCC[C@@H]1NC(=O)[C@@H](NC(=O)[C@@H](N)CCC(=O)O)[C@@H](C)OCCCC[C@@H]([C@H](O)CNc2ccc(C)cc2)NC1=O — 620-fold higher, 1000 µM
- CCC[C@@H]1NC(=O)[C@@H](NC(=O)[C@@H](N)CCC(=O)O)CCCCC[C@@H]([C@H](O)CNc2ccc(C)cc2)NC1=O — 880-fold higher, 1400 µM
- CCC[C@@H]1NC(=O)[C@@H](NC(=O)[C@@H](N)CCC(=O)O)CC/C=C\CC[C@@H]([C@H](O)CNc2ccc(C)cc2)NC1=O — 880-fold higher, 1410 µM
- CCC[C@@H]1NC(=O)[C@@H](NC(=O)[C@@H](N)CCC(=O)O)CCCCCC[C@@H]([C@H](O)CNc2ccc(C)cc2)NC1=O — 490-fold higher, 780 µM
- CCC[C@@H]1NC(=O)[C@@H](NC(=O)[C@@H](N)CCC(=O)O)[C@H](C)OC/C=C\C[C@@H]([C@H](O)CNc2ccc(C)cc2)NC1=O — 7.3-fold higher, 11.7 µM
- CCC[C@@H]1NC(=O)[C@@H](NC(=O)[C@@H](N)CCC(=O)O)C(C)(C)OCCCC[C@@H]([C@H](O)CNc2ccc(C)cc2)NC1=O — 3.8-fold higher, 6.1 µM
- CCC[C@@H]1NC(=O)[C@@H](NC(=O)[C@@H](N)CCC(=O)O)[C@H](C)OC/C=C/C[C@@H]([C@H](O)CNc2ccc(C)cc2)NC1=O — 620-fold higher, 1000 µM
- CCC[C@@H]1NC(=O)[C@@H](NC(=O)[C@@H](N)CCC(=O)O)COC/C=C/CC[C@@H]([C@H](O)CNc2ccc(C)cc2)NC1=O — higher, > 1500 µM
- CCC[C@@H]1NC(=O)[C@@H](NC(=O)[C@@H](N)CCC(=O)O)C/C=C/CC[C@@H]([C@H](O)CNc2ccc(C)cc2)NC1=O — higher, > 1500 µM
